Test results published in patent publication US20040101576A1, “IMMUNOPOTENTIATORS” (priority 1997, published 2004).

Test system: Langerhans' cells
Conditions: antigen (trinitrobenzenesulfonic acid, 1 mg/ml) added, Langerhans' cells UV irradiated, 3 mM glutathione added during irradiation; antigen only 17,500, antigen + UV 5,000 (FIG. 1)
Experimental: An antigen (trinitrobenzenesulfonic acid, 1 mg/ml) was added to Langerhans' cells and, after cleaning, they were mixed and cultured with T cells obtained by purifying lymph gland cell floating fluid with a nylon fiber column (Wako).

N[C@@H](CCC(=O)N[C@@H](CS)C(=O)NCC(=O)O)C(=O)O [glutathione]
multiplication of the T cells: 11,000
